According to ChEMBL document CHEMBL3600317, “In silico investigation of FOXM1 binding and novel inhibitors in epithelial ovarian cancer” (Bioorg Med Chem, 2015):
The source made the active and inactive calls. The calls are words filed in the database; no cut-off is given here.

What was measured:
SK-OV-3 [1] = test: Cytotoxicity against human SKOV3 cells at 10 uM after 72 hrs by sulforhodamine B assay; type: functional
OVCAR-3 [2] = test: Cytotoxicity against human OVCAR3 cells at 10 uM after 72 hrs by sulforhodamine B assay; type: functional
ES2 [3] = test: Cytotoxicity against human ES2 cells at 10 uM after 72 hrs by sulforhodamine B assay; type: functional, cell-based
SK-OV-3 [4] = test: Inhibition of CCNB1 protein expression in human SKOV3 cells at 1 uM by Western blot analysis; type: functional, cell-based
SK-OV-3 [5] = test: Inhibition of FOXM1 protein expression in human SKOV3 cells at 1 uM by Western blot analysis; type: functional, cell-based
SK-OV-3 [6] = test: Inhibition of CCNB1 mRNA expression in human SKOV3 cells at 1 uM by RT-PCR analysis; type: functional, cell-based
ES2 [7] = test: Inhibition of CCNB1 mRNA expression in human ES2 cells at 1 uM by RT-PCR analysis; type: functional, cell-based
SK-OV-3 [8] = test: Inhibition of FOXM1 mRNA expression in human SKOV3 cells at 1 uM by RT-PCR analysis; type: functional, cell-based
OVCAR-3 [9] = test: Cytotoxicity against human OVCAR3 cells after 72 hrs by sulforhodamine B assay; type: functional, cell-based; conditions: OVCAR-3, 72 h
ES2 [10] = test: Inhibition of CDC25B mRNA expression in human ES2 cells at 1 uM by RT-PCR analysis; type: functional, cell-based
OVCAR-3 [11] = test: Inhibition of FOXM1 protein expression in human OVCAR3 cells at 1 uM by Western blot analysis; type: functional, cell-based
SK-OV-3 [12] = test: Cytotoxicity against human SKOV3 cells after 72 hrs by sulforhodamine B assay; type: functional, cell-based; conditions: SK-OV-3, 72 h
SK-OV-3 [13] = test: Inhibition of CDC25B mRNA expression in human SKOV3 cells at 1 uM by RT-PCR analysis; type: functional, cell-based
[14] = Cytotoxicity against human ES2 cells after 72 hrs by sulforhodamine B assay; type: functional, cell-based; conditions: ES-2, 72 h
OVCAR-3 [15] = test: Inhibition of CCNB1 protein expression in human OVCAR3 cells at 1 uM by Western blot analysis; type: functional, cell-based
ES2 [16] = test: Inhibition of FOXM1 mRNA expression in human ES2 cells at 1 uM by RT-PCR analysis; type: functional, cell-based
ES2 [17] = test: Inhibition of CCNB1 protein expression in human ES2 cells at 1 uM by Western blot analysis; type: functional, cell-based
ES2 [18] = test: Inhibition of FOXM1 protein expression in human ES2 cells at 1 uM by Western blot analysis; type: functional, cell-based
OVCAR-3 [19] = test: Cytotoxicity against human OVCAR3 cells at 1 nM to 100 uM after 72 hrs by sulforhodamine B assay; type: functional, cell-based
SK-OV-3 [20] = test: Cytotoxicity against human SKOV3 cells at 1 nM to 100 uM after 72 hrs by sulforhodamine B assay; type: functional, cell-based
ES2 [21] = test: Cytotoxicity against human ES2 cells at 1 nM to 100 uM after 72 hrs by sulforhodamine B assay; type: functional, cell-based

In the case of `O=C(Nc1ccc2ncccc2c1)Nc1ccc2ncccc2c1`, the Activity (SK-OV-3 [1]) is reported as 20%, the Activity (OVCAR-3 [2]) is reported as 20% and the Activity (ES2 [3]) is reported as “inactive”.

In the case of `c1ccc(Nc2cc3ccccc3c3ccccc23)cc1`, the inhibition (SK-OV-3 [4]) is reported as “Active”, the inhibition (SK-OV-3 [5]) is reported as “Active” and the inhibition (SK-OV-3 [6]) is reported as “Active”. For the same molecule, the inhibition (ES2 [7]) was “Active”, the inhibition (SK-OV-3 [8]) was “Active” and the IC50 (OVCAR-3 [9]) was 1000 nM. The inhibition (ES2 [10]) was “Active”, the inhibition (OVCAR-3 [11]) was “Active” and the IC50 (SK-OV-3 [12]) was 1000 nM. For the same molecule, the inhibition (SK-OV-3 [13]) was “Active”, the IC50 [14] was 1000 nM and the inhibition (OVCAR-3 [15]) was “Active”. For the same molecule, the inhibition (ES2 [16]) was “Active”, the inhibition (ES2 [17]) was “Active” and the inhibition (ES2 [18]) was “Active”.

In the case of `CC(=O)Nc1ccccc1[N+](=O)[O-]`, the Activity (OVCAR-3 [19]) is reported as “inactive”, the Activity (SK-OV-3 [20]) is reported as “inactive” and the Activity (ES2 [21]) is reported as “inactive”.
